The conditions of data set [1]: 12-membered ring.
Data set [2] addresses human Factor XIa (Homo sapiens (Human), UniProt P03951). Description: Factor XIa enzyme inhibition assay (chromogenic substrate S-2366). The data set is classed as biochemical. Conditions: purified human Factor XIa 25-200 pM, substrate S-2366, 50 mM HEPES pH 7.4.
Where [3] appears, read: from C=CC[C@H](NC(=O)OC(C)(C)C)c1cc(-c2ccc(NC(=O)OC)cc2NC(=O)C(C=C)CC)ccn1, rcm bond, Grubbs II, microwave, DCE, 120.0 °C, 0.42 h.

Each structure is given as a SMILES string. pKi: −log10 of the molar value. “And” between values parts separate entries of the source, which are not always exact repeats. Identical values can stand only once. Like-named read-outs stand apart in the source and are kept apart here.

Sequence of human Factor XIa (P03951 388-625): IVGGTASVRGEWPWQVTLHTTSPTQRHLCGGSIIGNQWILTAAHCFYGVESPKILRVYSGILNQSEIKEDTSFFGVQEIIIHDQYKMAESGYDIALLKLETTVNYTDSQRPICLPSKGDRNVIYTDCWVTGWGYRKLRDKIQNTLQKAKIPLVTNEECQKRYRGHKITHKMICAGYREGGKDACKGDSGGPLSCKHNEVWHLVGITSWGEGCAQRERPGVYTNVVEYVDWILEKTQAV
Sequence of human Factor XIa (P03951 19-387 partner): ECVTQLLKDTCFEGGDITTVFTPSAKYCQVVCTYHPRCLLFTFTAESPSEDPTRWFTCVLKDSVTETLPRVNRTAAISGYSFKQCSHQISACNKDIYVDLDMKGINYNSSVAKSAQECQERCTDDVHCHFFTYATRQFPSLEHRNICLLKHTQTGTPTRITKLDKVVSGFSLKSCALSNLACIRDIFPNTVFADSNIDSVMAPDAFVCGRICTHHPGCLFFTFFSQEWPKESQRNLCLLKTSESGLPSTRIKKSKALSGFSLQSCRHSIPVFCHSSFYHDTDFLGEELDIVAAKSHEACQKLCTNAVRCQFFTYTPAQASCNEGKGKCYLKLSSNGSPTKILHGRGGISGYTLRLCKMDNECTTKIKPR

For `CCOC(=O)C1C/C=C/C[C@H](NC(=O)OC(C)(C)C)c2cc(ccn2)-c2ccc(NC(=O)OC)cc2N1` (some centres unmarked), the ring closure, isolated yield in data set [1] (from C=CCC(Nc1cc(NC(=O)OC)ccc1-c1ccnc([C@H](CC=C)NC(=O)OC(C)(C)C)c1)C(=O)OCC, rcm bond, Grubbs (as described before)) came out at 47%.
As for `COC(=O)Nc1ccc(-c2ccnc([C@H](CCCO)NC(=O)OC(C)(C)C)c2)c(N)c1`, in data set [1] (the molecule shown is the open-chain precursor, other bond, phosgene, then TEA/DMAP, DCM, 3.3 mM, 2 steps), the ring closure, isolated yield came out at 57%.
For the compound `COC(=O)Nc1ccc2c(c1)NC(=O)C(C)/C=C/C[C@H](NC(=O)OC(C)(C)C)c1cc-2nnc1Cl` (some centres unmarked), the ring closure, isolated yield in data set [1] (from C=CC[C@H](NC(=O)OC(C)(C)C)c1cc(-c2ccc(NC(=O)OC)cc2NC(=O)C(C)C=C)nnc1Cl, rcm bond, Grubbs II (0.4 eq), 1,2-dichloroethane, 4.7 mM, 120.0 °C, 0.5 h) came to 22%.
`COC(=O)Nc1ccc2c(c1)NC(=O)C(C)C=CC[C@H](NC(=O)OC(C)(C)C)c1cc-2cc(=O)[nH]1` (some centres unmarked): the ring closure, yield after HPLC (from C=CC[C@H](NC(=O)OC(C)(C)C)c1cc(-c2ccc(NC(=O)OC)cc2NC(=O)C(C)C=C)cc(=O)[nH]1, rcm bond, 12-membered ring, Grubbs II (0.4 eq), microwave, DCE, 18.0 mM, 120.0 °C, 0.5 h) is 19% and 35%.
Regarding `COC(=O)Nc1ccc2c(c1)NC(=O)C/C=C/C(C)[C@H](NC(=O)OC(C)(C)C)c1cc-2ccn1` (some centres unmarked), where the note is “from C=CCC(=O)Nc1cc(NC(=O)OC)ccc1-c1ccnc([C@@H](NC(=O)OC(C)(C)C)C(C)C=C)c1, rcm bond, 12-membered ring, Grubbs II, toluene, 9.0 mM, 160.0 °C, 0.33 h”, the ring closure, yield after HPLC is 12%.
On to `COC(=O)Nc1ccc2c(c1)NC(=O)C/C=C/C[C@H](NC(=O)OC(C)(C)C)c1cc-2ccn1`, for which the ring closure, isolated yield in data set [1] (from C=CCC(=O)Nc1cc(NC(=O)OC)ccc1-c1ccnc([C@H](CC=C)NC(=O)OC(C)(C)C)c1, rcm bond, Grubbs II (0.4 eq)/pTsOH, DCM, 4.0 mM, 40.0 °C, 3.0 h) is 26%.
Compound `COC(=O)Nc1ccc2c(c1)NC(=O)CC/C=C/C[C@H](NC(=O)OC(C)(C)C)c1cc-2cc(=O)[nH]1` showed a ring closure, yield after HPLC (from C=CCCC(=O)Nc1cc(NC(=O)OC)ccc1-c1cc([C@H](CC=C)NC(=O)OC(C)(C)C)[nH]c(=O)c1, rcm bond, 13-membered ring, Grubbs II, microwave, DCE, 18.9 mM, 120.0 °C, 0.5 h) of 26%.
As to `COC(=O)Nc1ccc2c(c1)NC(=O)CC/C=C/C[C@H](NC(=O)OC(C)(C)C)c1nc-2cn1COCC[Si](C)(C)C`, the ring closure, yield after HPLC (from C=CCCC(=O)Nc1cc(NC(=O)OC)ccc1-c1cn(COCC[Si](C)(C)C)c([C@H](CC=CN)C(=O)OC(C)(C)C)n1, rcm bond, 13-membered ring) is 42%.
As to `COC(=O)Nc1ccc2c(c1)NC(=O)CCOC[C@H](NC(=O)OC(C)(C)C)c1nc-2cn1COCC[Si](C)(C)C`, the ring closure, yield after HPLC (from COC(=O)Nc1ccc(-c2cn(COCC[Si](C)(C)C)c([C@H](COCCC(=O)O)NC(=O)OC(C)(C)C)n2)c(N)c1, amide bond, 12-membered ring, BOP/DMAP/DIEA, DMF, 1.0 mM, 25.0 °C, 16.0 h) came out at 75%.
On to `COC(=O)Nc1ccc2c(c1)NC(=O)COCC[C@H](NC(=O)OCc1ccccc1)c1cc-2ccn1`, for which the ring closure, yield after HPLC (from COC(=O)Nc1ccc(-c2ccnc([C@H](CCOCC(=O)O)NC(=O)OCc3ccccc3)c2)c(N)c1, amide bond, 12-membered ring, BOP/DMAP/DIEA, DCM/DMF, 2.8 mM, 25.0 °C, 6.0 h) is 27%.
Consider `COC(=O)Nc1ccc2c(c1)NC(=O)[C@H](C)/C=C/C[C@H](NC(=O)OC(C)(C)C)c1cc-2ccn1`, for which the ring closure, isolated yield stood at 25% in data set [1] (from C=CC[C@H](NC(=O)OC(C)(C)C)c1cc(-c2ccc(NC(=O)OC)cc2NC(=O)C(C)C=C)ccn1, rcm bond, Grubbs II (0.1 eq)/pTsOH, DCM, 4.0 mM, 40.0 °C, 6.0 h) and 71% in data set [1] (from C=CC[C@H](NC(=O)OC(C)(C)C)c1cc(-c2ccc(NC(=O)OC)cc2NC(=O)[C@H](C)C=C)ccn1, rcm bond, Grubbs II (0.2 eq)/pTsOH, DCM, 11.8 mM, 4.0 h).
Take `COC(=O)Nc1ccc2c(c1)NC(=O)[C@H](C)C=CC[C@H](NC(=O)OC(C)(C)C)c1nc-2cn1COCC[Si](C)(C)C`: in data set [1] (from C=CC[C@H](NC(=O)OC(C)(C)C)c1nc(-c2ccc(NC(=O)OC)cc2NC(=O)[C@H](C)C=C)cn1COCC[Si](C)(C)C, rcm bond, Grubbs II (0.4 eq)/pTsOH, DCM, 10.0 mM, 40.0 °C, 21.5 h), the ring closure, isolated yield stood at 41%.
In turn, `COC(=O)Nc1ccc2c(c1)NC(=O)[C@H](C)CCC[C@H](NC(=O)OC(C)(C)C)c1nc-2cn1COCC[Si](C)(C)C` had a ring closure, yield after HPLC (from COC(=O)Nc1ccc(-c2cn(COCC[Si](C)(C)C)c([C@H](CCCC(C)C(=O)O)NC(=O)OC(C)(C)C)n2)c(N)c1, amide bond, 12-membered ring, BOP/DMAP/DIEA, DCM/DMF, 3.4 mM, 50.0 °C, 96.0 h) of 22%.
On to `C[C@@H]1/C=C/C[C@H](NC(=O)OC(C)(C)C)c2cn(COCC[Si](C)(C)C)c(n2)-c2ccc([N+](=O)[O-])cc2NC1=O`, for which, in data set [1] (from C=CC[C@H](NC(=O)OC(C)(C)C)c1cn(COCC[Si](C)(C)C)c(-c2ccc([N+](=O)[O-])cc2NC(=O)[C@H](C)C=C)n1, rcm bond, Grubbs II (0.287 mmol), DCM, 16.0 h), the ring closure, isolated yield came to 56%.
On to `CCC1/C=C/C[C@H](NC(=O)OC(C)(C)C)c2cc(ccn2)-c2ccc(NC(=O)OC)cc2NC1=O` (single isomer, unassigned; diastereomer a), for which the ring closure, isolated yield in data set [1] (setting [3]) was determined as 10%.
Still for that read-out and setting: the result for `CCC1/C=C/C[C@H](NC(=O)OC(C)(C)C)c2cc(ccn2)-c2ccc(NC(=O)OC)cc2NC1=O` (single isomer, unassigned; diastereomer b) reads 16%.
`COC(=O)Nc1ccc2c(c1)NC(=O)[C@H](C)CCC[C@H](NC(=O)c1ncn(-c3cccc(Cl)c3F)c1C)c1cc-2cc(OC)n1` [Example 257] had a pKi in data set [2] of more than 8.30.
On the same count and under the same terms, with `COC(=O)Nc1ccc2c(c1)NC(=O)[C@H](C)CCC[C@H](NC(=O)c1cnn(-c3cccc(Cl)c3F)c1C)c1c[nH]c-2n1` [Example 262] the figure was 7.87; with `COC(=O)Nc1ccc2c(c1)NC(=O)[C@H](C)CCC[C@H](NC(=O)c1ncn(-c3cccc(Cl)c3F)c1C)c1c[nH]c-2n1` [Example 263], 7.48.
